Results from publication doi:10.1101/2024.07.10.602875v1 (biorxiv, 2024).

Experiments:
TgIMPα [1] = biological target: T1, TgIMPα (Toxoplasma gondii, UniProt A0A125YID0); experiment: intrinsic tryptophan fluorescence quenching; assay type: binding
T1 sequence (A0A125YID0 1-545): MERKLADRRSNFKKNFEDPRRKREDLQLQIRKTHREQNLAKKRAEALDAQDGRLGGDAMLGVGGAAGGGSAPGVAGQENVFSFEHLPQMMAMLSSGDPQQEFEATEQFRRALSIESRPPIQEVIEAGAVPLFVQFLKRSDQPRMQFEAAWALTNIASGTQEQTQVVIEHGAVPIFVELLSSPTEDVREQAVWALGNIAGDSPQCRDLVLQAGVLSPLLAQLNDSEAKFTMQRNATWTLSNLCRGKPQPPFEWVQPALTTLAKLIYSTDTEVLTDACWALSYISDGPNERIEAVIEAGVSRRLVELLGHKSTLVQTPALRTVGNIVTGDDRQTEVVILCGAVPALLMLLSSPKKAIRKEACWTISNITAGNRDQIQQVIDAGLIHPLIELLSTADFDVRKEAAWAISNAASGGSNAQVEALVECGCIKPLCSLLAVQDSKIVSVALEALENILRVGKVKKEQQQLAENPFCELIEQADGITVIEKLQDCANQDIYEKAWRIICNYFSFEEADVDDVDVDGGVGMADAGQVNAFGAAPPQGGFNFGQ

T. gondii = experiment: microbe, parasite or virus in culture; parameters: species or system T. gondii RH-luciferase in HFF; conditions: Toxoplasma gondii, read-out: Cell viability IC50 (µM)
TgIMPα [2] = biological target: T1, TgIMPα; experiment: AlphaScreen, inhibition of IMPα:NLS interaction; assay type: binding
PfIMPα = biological target: T2, PfIMPα (Plasmodium falciparum, UniProt Q8IAW0); experiment: intrinsic tryptophan fluorescence quenching; assay type: binding
T2 sequence (Q8IAW0 1-545): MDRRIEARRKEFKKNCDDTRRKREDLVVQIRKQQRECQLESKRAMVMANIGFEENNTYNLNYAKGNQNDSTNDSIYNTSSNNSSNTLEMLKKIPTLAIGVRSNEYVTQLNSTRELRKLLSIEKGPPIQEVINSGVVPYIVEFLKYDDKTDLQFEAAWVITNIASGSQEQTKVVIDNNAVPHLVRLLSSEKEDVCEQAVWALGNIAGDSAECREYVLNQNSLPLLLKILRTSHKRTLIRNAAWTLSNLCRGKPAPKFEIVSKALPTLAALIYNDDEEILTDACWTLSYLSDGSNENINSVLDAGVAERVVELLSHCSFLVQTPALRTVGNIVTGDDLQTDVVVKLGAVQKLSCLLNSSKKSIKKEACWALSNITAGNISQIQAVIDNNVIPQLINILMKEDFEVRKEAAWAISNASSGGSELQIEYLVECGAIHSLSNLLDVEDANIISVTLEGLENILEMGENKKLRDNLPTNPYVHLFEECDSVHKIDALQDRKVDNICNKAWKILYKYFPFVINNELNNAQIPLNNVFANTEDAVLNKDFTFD

Cc1ccc(S(=O)(=O)/C=C/C#N)cc1 [Bay 11-7082]
IC50 (TgIMPα [1]): 17.5 ± 3.3 µM | IC50 (T. gondii): 1.06 ± 0.07 µM | IC50 (TgIMPα [2]): 8.2 ± 1.3 µM

CC(C)(C)c1ccc(S(=O)(=O)/C=C/C#N)cc1 [Bay 11-7085]
IC50 (TgIMPα [1]): 27.7 ± 9.4 µM | IC50 (PfIMPα): 19.9 ± 3.7 µM
